Assay results: patent US11607443B2, “Therapeutic peptides” (UNIVERSITE TOULOUSE III-PAUL SABATIER, priority 2016, dated 2023)

Experiments:
miR16-1 = test: Accumulation of miR16-1 in mesenchymal stem cells by RT-qPCR; format: cell-based, human; settings: 10 μM for 3 h, MSCs from three patients, normalized to PPIA; FIG. 16
Method: The mesenchymal stem cells were treated with 10 μM of miPEP//15a-16-1-TAT, treated with 10 μM of control peptide (ScmiPEP//21-1) or untreated (NT) for 3 hours. The amount of miR16-1 precursor in cells has been measured by quantitative RT-PCR. The measurement of the amount of miR16-1 precursor was normalized with respect to the PPIA household gene. Analyzes and statistics were performed with the Mann-Withney test (p-value: * p<0.05; ** p<0.01 and *** p<0.001).
The effect of miPEP 15a-16-1 on miR16-1 accumulation was analyzed in mesenchymal stem cells (MSCs). The experiments were carried out with a fragment of 10 amino acids respectively corresponding to the N-terminal portion of the miPEP 15a-16-1 (=fragment miPEP//15 a-16-1).
MSCs from three different patients were treated with 10 μM of miPEP//15a-16-1 fused to TAT peptide (miPEP//15a-16-1-TAT) for 3 h, then the amount of miR16-1 was measured by RT-qPCR.
Peptides were synthesized by Smartbioscience and dissolved at 2 mM in water.
The MSCs were seeded in wells of 12-well plates at 72,900 cells per well under 1 mL of PROLIF medium. The cells were then incubated for 72 h at 37° C. in a humid atmosphere with 5% CO2. […]
The amount of miRNAs precursors in cells treated or not treated with miPEP was evaluated by quantitative RT-PCR with the SsoFast EvagGreen kit. […] PPIA was used as a reference gene to normalize quantitative RT-PCR. […]

mesenchymal stem cells = test: Expression of osteoblast marker genes (iBSP, PTHR1, STMN2, OSTERIX) in mesenchymal stem cells by quantitative RT-PCR; format: cell-based, human; settings: for osteoblast differentiation of mesenchymal stem cells: conclusion from increased expression of osteoblast marker genes
Method: The respective effects of miPEP 125a-1 and miPEP 145-2 on differentiation of mesenchymal stem cells were analyzed by measuring the expression of the iBSP, PTHR1, STMN2 and OSTERIX genes that correspond to markers of osteogenesis and of osteoblast differentiation (Chiellini et al., Biochem Biophys Res Commun, 374(1):64-8, 2008; Cordonnier et al., Tissue Eng, 17(3): 249-259, 2011).
The experiments were carried out with two fragments of 10 amino acids respectively corresponding to the N-terminal part of the miPEP 125a-1 (=miPEP//125a-1 fragment) and to the N-terminal part of the miPEP 145-2 (=fragment miPEP//145-2).
Mesenschymal stem cells from 4 different donors were cultured for 24 hours in PROLIF medium (αMEM+10% FCS) with or without miPEP//then for 3 days in DIF+BMP4 medium (αMEM+2% FCS+b-Glycerophosphate+Ascorbic acid+BMP4), DIF ΔBMP4 medium (αMEM+2% FCS+b-Glycerophosphate+Ascorbic acid) or PROLIF medium (αMEM+10% FCS), with or without miPEP//.
The expression of the iBSP, PTHR1, STMN2 and OSTERIX genes was then measured in mesenchymal stem cells cultured in the presence or absence of a miPEP*.
a. Composition of Culture Media • Proliferation medium (PROLIF): αMEM+10% FBS+1% P/S • Differentiation medium+BMP4 (DIF+BMP4): αMEM+2% FBS+1% P/S+βglycerophosphate (10 mM)+Ascorbic acid (50 μM)+BMP4 (50 ng/mL) • Differentiation medium without BMP4 (DIF ΔBMP4): αMEM+2% FBS+1% P/S+βglycerophosphate (10 mM)+Ascorbic acid (50 μM)
The miPEP//145-2 was synthesized by Smartbioscience and dissolved at 2 mM in water. The miPEP//125a-1 was synthesized by Smartbioscience and dissolved in water+0.1% ammonium.
The mesenchymal stem cells were seeded in 12-well plates at 70,000 cells/well in 1 mL of PROLIF medium. The cells were then incubated for 72 h at 37° C. in a humid atmosphere with 5% CO2.
After 72 hours of incubation, the cells were pre-treated with 100 μM of miPEP or “scramble” peptide diluted in PROLIF medium, and then incubated at 37° C. for 24 hours. In parallel, cells treated with PROLIF±water or water+0.1% ammonium medium were used as a negative control.
For 3 days, the cells were treated every 24 h with 100 μM of diluted miPEP either in DIF+BMP4 medium, or in DIF ΔBMP4 medium, or in PROLIF medium. Cells untreated or treated with water or water+0.1% ammonium were used as controls. The cells are incubated at 37° C.
After 3 days of treatment, the culture supernatants were removed, the cell mats were washed once with PBS, and then the plates were frozen at −80° C. until the total RNAs were extracted.
Total RNAs were extracted according to the supplier's recommendations with the miRNeasy microkit kit (Qiagen).
The RNAs were reverse transcribed with the High Capacity cDNA reverse transcription kit (Applied Biosystem). 600 ng of RNA were added to 2 μL of RT buffer (10×), 2 μL of Random primer (10×), 0.8 μL of dNTPs (25×), 0.5 μL of RNAse OUT (40 U/μL) and 1 μL of multiscribe reverse transcriptase (50 U/μL) in a total volume of 20 μL. The reverse transcription reaction was carried out at 25° C. for 10 min and then 42° C. for 2 h. The activity of the enzyme was stopped by incubating the mixture at 85° C. for 5 min.
The expression of osteoblastic transcription factors iBSP, PTHR1, STMN2 and OSTERIX was evaluated by quantitative RT-PCR with the SsoFast EvagGreen kit. For the RT-PCR reaction, 3 μL of […] diluted 1/8 were added to 1× of SsoFast EvaGreen, 10 μM of each primer and RNase free water in a final volume of 10 μL. The reaction was subjected to the following temperatures: 3 min pre-amplification at 95° C., 40 cycles of 10 sec at 95° C. and […] in a thermal cycler (CFX96 Real-time PCR detection system, Biorad). PPIA was used as a reference gene to normalize quantitative RT-PCR.
For all PCR reactions, two replicates were used for each biological sample.

Nude mice = test: In vivo bone formation by subcutaneous implantation of MSCs + HA/β-TCP biomaterial in Nude mice
Method: For D. and F. conditions, mice also received regular injections (once a week) of either miPEP//125a-1 (D) or scramble miPEP (F) during the study. After 4 weeks, the mice are euthanized and the grafts were then isolated, fixed, included in methacrylate, cut and treated for histology. The cuts were scanned (NDPview) and bone formation (dark grey) is evaluated (A to F) and is also quantified (G) using the Fiji image analysis software and the total area of new bone is reported to the total area of the cut
For G, the y-axis indicates the percentage of bone formation and the statistical analyzes were performed with the paired t-test (p-value: * p<0.05; ** p<0.01 and *** p<0.001).
All experiments on animals were done in accordance with directive 2010/63/EU and after validation of protocols by the Animal Ethics Committee (Toulouse, N: 86/809 EEC). A total of 6-8 mice was used per group. The cells cultured osteo-induced or not according to the methods described elsewhere (see Example 1), were then suspended for 1 to 2 h in the culture medium also containing granules of biomaterials in the ratio of 2×10^6 cells/50 mg of biomaterial. These biomaterials were biphasic inorganic calcium phosphate (BCP), composed of hydroxyapatite (HA) and beta-tricalcium phosphate (β-TCP) in a ratio of 20/80, ranging in size from 0.5 to 1 mm (sold by Biomatlante, Vigneux de Bretagne, France). The porosity of these biomaterials (% vol) was 75±5% of pores of which 70% (0 to 10 μm), 20% (10 to 100 μm) and 10% (100 to 300 μm). They were sterilized by autoclaving.
The biomaterial alone has been implanted as a negative control. Female Nude mice (RjOrl: NMRI-Foxnnul/Foxnlnu) (Laboratoires Janvier, Saint-Berthevin, France) are generally anesthetized by inhalationn of isoflurane. Two implants (cells+biomaterials) are subcutaneously placed in the back of the mice on each side of the spine. After 4 weeks, the treated animals are sacrificed. The implants are then removed and fixed in a buffered 4% formalin solution. Some groups of mice will also receive regular injections (once a week) during the study either of the miPEP//125a-1 (SEQ ID NO: 11 752) or the control miPEP (scramble ScmiPEP//125a, SEQ ID NO: 11 758).
These implants were then decalcified in a solution of 4.13% EDTA/0.2% PFA in PBS for 96 hours at 50° C. using an automatic microwave for demineralization (KOS Histostation, Milestone Med. Corp. USA). The samples were dehydrated in ethanol and then butanol baths in an automatic dehydration apparatus (MicromMicrotech, Lyon, France). The samples were then immersed in paraphine (Histowax, Histolab, Gottenburg, Sweden). Fine sections ([…]) were made using a microtome (Leica RM2255, Leica Biosystems, Nanterre, France). The sections were stained by the Masson trichrome technique and the collagen in light green.
The photos were obtained by a scan of each cut (NanoZoomer, Hamamatsu, Photonics, Hamamatsu City, Shizuoka, Japan) and observed virtually (NDP view, Hamamatsu). The histomorphometry of the images was done using the ImageJ software and the neoformed bone percentage was calculated by explant area. 3 to 4 sections per explant were analyzed and quantified.

[1] = DIF ΔBMP4 medium, 100 μM miPEP, 4 days, FIGS. 7 and 9
[2] = DIF ΔBMP4 medium, 100 μM miPEP, 4 days, FIGS. 8 and 10
[3] = DIF+BMP4 medium, 100 μM miPEP, 4 days, FIGS. 4 and 6

Substance	amount of miR 16-1 (miR16-1)	expression of the STMN2 gene (mesenchymal stem cells; [1])	expression of the OSTERIX gene (mesenchymal stem cells; [2])	expression of the iBSP gene (mesenchymal stem cells; DIF+BMP4 medium, 100 μM miPEP, 4 days, FIG. 2)	expression of the PTHR1 gene (mesenchymal stem cells; DIF+BMP4 medium, 100 μM miPEP, 4 days, FIG. 3)	expression of the OSTERIX gene (mesenchymal stem cells; DIF+BMP4 medium, 100 μM miPEP, 4 days, FIG. 5)	expression of the STMN2 gene (mesenchymal stem cells; [3])	osteoblast differentiation of mesenchymal stem cells (mesenchymal stem cells)	bone formation, quantified neoformed bone (Nude mice; MSCs only pre-treated in vitro (C) versus untreated MSCs (B), p=0.0241, FIG. 17G)	bone formation, quantified neoformed bone (Nude mice; MSCs pre-treated in culture (C) versus MSCs pre-treated with scramble miPEP (E), p=0.0499, FIG. 17G)	bone formation, quantified neoformed bone (Nude mice; MSCs pre-treated in vitro and then in vivo (D) versus untreated MSCs (B), p=0.0203, FIG. 17G)	bone formation, qualitative (histology images) (Nude mice; MSCs pre-treated with miPEP (FIG. 17C-D) versus scramble miPEP (FIG. 17E-F), 4 weeks)	ability of human MSCs to form bone in vivo (Nude mice; MSCs previously treated in vitro)	effect of in vivo injection of the miPEP on the induction of bone formation (Nude mice; pre-treated MSCs plus weekly injection (D) versus MSCs only pre-treated (C), FIG. 17G)	expression of the STMN2 gene (mesenchymal stem cells; PROLIF medium, 100 μM miPEP, 4 days, FIG. 11)
MFKHRFFYMH-YGRKKRRQRRR [miPEP//15a-16-1-TAT]	increase	–	–	–	–	–	–	–	–	–	–	–	–	–	–
MSLCLSPSLT [miPEP//125a-1, fragment of 10 amino acids corresponding to the N-terminal part of the miPEP 125a-1]	–	increases	increases	increases	increases	increases	increases	promote osteoblast differentiation	significantly higher	significantly more bone formation	significantly higher	greater	increased	without consequence	–
MVGLNPPLWQ [miPEP//145-2, fragment of 10 amino acids corresponding to the N-terminal part of the miPEP 145-2]	–	increases	increases	–	–	–	increases	promote osteoblast differentiation	–	–	–	–	–	–	increases
